Experiments:
[1] = test system: spontaneously hypertensive male rats, strain MHS; experiment: Anti-hypertensive activity in the spontaneously hypertensive rat (MHS): blood pressure and heart rate at the tail; assay type: in vivo
Method: 1. Spontaneously Hypertensive Rat (MHS)
Four spontaneously hypertensive male rats, strain MHS, weight 250 to 300 g for each group were used. The animals were treated for four consecutive days. The drugs were administered by gastric gavage while suspended in 5% arabic gum (0.2 ml/100 g body weight), and blood pressure (BP) and heart rate (HR) were measured at the tail by BP Recorder W+W. Blood pressure and heart rate were measured on the first and fourth day of treatment 1 hour before and 1 and 5 hours after drug administration.

normotensive rats = experiment: Blood pressure and heart rate in the conscious normotensive rat (NR); assay type: in vivo; details: 5 mg/kg os
Method: Blood pressure recordings have been made in conscious normotensive unrestrained rats weighing approximately 300 g, via a catheter chronically inserted into the left common carotid artery. Implantation of arterial cannula was made under sodium pentobarbital anesthesia (50 mg/kp i.p.) A 1 cm long incision was made through the previously shaved ventral surface of the neck and the tissues overlying the trachea parted by blunt dissection to reveal the carotid artery. The polyethylene catheter used was made with PE 50 tubing, previously filled with saline containing 250 I.U./ml heparin. The tip of the cannula was pushed at least 2 cm inside the vessel toward the heart. The cannula was then firmly tied and passed beneath the skin to emerge from a small incision in the back of the neck. During the post-operative period and before the start of each recording session, the cannula was flushed through daily with saline containing heparin (250 I.U./ml). The experiments were performed two days after surgery. Drugs were administered by gastric gavage.

[2] = Acute toxicity (LD50) in mice; assay type: in vivo, mouse; details: mouse, in vivo; male mice; oral; observed for seven days
Source text: (§1) Evaluation of the Toxicity (LD50)
(§2) Ten male mice for each group were orally treated with drugs at different dose levels for the determination of lethal dose 50 (LD50).

male mice = experiment: Acute toxicity (LD50) in mice; assay type: in vivo, mouse; details: oral, observed for seven days, 10080 min
Source text: as §1, §2

Row | SMILES | Change in BP, 1 hr after dose, first day ([1]; 2 mg/kg os) | Change in HR, 1 hr after dose, first day ([1]; 2 mg/kg os) | Change in HR, 5 hr after dose, first day ([1]; 2 mg/kg os) | Change in BP, 5 hrs after dose, first day ([1]; 2 mg/kg os) | Change in BP, 1 hr after dose, fourth day ([1]; 2 mg/kg os) | Change in HR, 1 hr after dose, fourth day ([1]; 2 mg/kg os) | Change in HR, 5 hr after dose, fourth day ([1]; 2 mg/kg os) | Change in BP, 5 hrs after dose, fourth day ([1]; 2 mg/kg os) | Change in BP, 1 hr after dose, first day ([1]; 5 mg/kg os) [mm Hg] | Change in HR, 1 hr after dose, first day ([1]; 5 mg/kg os) | Change in HR, 5 hr after dose, first day ([1]; 5 mg/kg os) | Change in BP, 5 hrs after dose, first day ([1]; 5 mg/kg os) [mm Hg] | Change in BP, 1 hr after dose, fourth day ([1]; 5 mg/kg os) [mm Hg] | Change in HR, 1 hr after dose, fourth day ([1]; 5 mg/kg os) | Change in HR, 5 hr after dose, fourth day ([1]; 5 mg/kg os) | Change in BP, 5 hrs after dose, fourth day ([1]; 5 mg/kg os) [mm Hg] | Change in Blood Pressure after Treatment, 30' (normotensive rats) [mm Hg] | Change in heart rate after treatment, 30' (normotensive rats) | Change in Blood Pressure after Treatment, 60' (normotensive rats) [mm Hg] | Change in heart rate after treatment, 60' (normotensive rats) | also measured
1 | CN1C[C@H](CC(C#N)C(=O)N2CCCC2)C[C@@H]2c3cccc4[nH]cc(c34)C[C@H]21 (stereo partly drawn) [Example 1133, 2-Cyano-3-(6'-methylergoline-8'β)-N-propionyl-pyrrolidine] | -20 mm Hg | -33 b/min | -28 b/min | -11 mm Hg | -21 mm Hg | -20 b/min | -3 b/min | -10 mm Hg | -24 | 0 b/min | +13 b/min | -9 | -42 | -13 b/min | -8 b/min | -25 | -15 | -25 b/min | -20 | -45 b/min | Change in Blood Pressure after Treatment, 120' (normotensive rats): -15 mm Hg; Change in heart rate after treatment, 120' (normotensive rats): -40 b/min; Change in Blood Pressure after Treatment, 180' (normotensive rats): -10 mm Hg; Change in heart rate after treatment, 180' (normotensive rats): -40 b/min; Change in Blood Pressure after Treatment, 240' (normotensive rats): -9 mm Hg; Change in heart rate after treatment, 240' (normotensive rats): -10 b/min; Change in Blood Pressure after Treatment, 360' (normotensive rats): 0 mm Hg; Change in heart rate after treatment, 360' (normotensive rats): -5 b/min; Change in Blood Pressure after Treatment, 24h (normotensive rats): +5 mm Hg; Change in heart rate after treatment, 24h (normotensive rats): 0 b/min; LD50 at 168 h [2]: 500 mg/kg
2 | CCNC(=O)C(C#N)C[C@@H]1C[C@@H]2c3cccc4[nH]cc(c34)C[C@H]2N(C)C1 (stereo partly drawn) [Example 1138, 2-Cyano-3-(6'-methylergoline-8'β)-N-ethylpropionamide] | -23 mm Hg | -25 b/min | -10 b/min | -14 mm Hg | -30 mm Hg | -47 b/min | -12 b/min | -15 mm Hg | -25 | -8 b/min | +5 b/min | -9 | -26 | -20 b/min | -25 b/min | -11 | -10 | -15 b/min | -20 | -30 b/min | Change in Blood Pressure after Treatment, 120' (normotensive rats): -15 mm Hg; Change in heart rate after treatment, 120' (normotensive rats): -30 b/min; Change in Blood Pressure after Treatment, 180' (normotensive rats): -10 mm Hg; Change in heart rate after treatment, 180' (normotensive rats): -15 b/min; Change in Blood Pressure after Treatment, 240' (normotensive rats): -10 mm Hg; Change in heart rate after treatment, 240' (normotensive rats): 0 b/min; Change in Blood Pressure after Treatment, 360' (normotensive rats): 0 mm Hg; Change in heart rate after treatment, 360' (normotensive rats): +5 b/min; Change in Blood Pressure after Treatment, 24h (normotensive rats): 0 mm Hg; Change in heart rate after treatment, 24h (normotensive rats): +10 b/min; LD50 at 168 h [2]: 500 mg/kg
3 | CN1C[C@H](CC(C#N)C(N)=O)C[C@@H]2c3cccc4[nH]c(Br)c(c34)C[C@H]21 (stereo partly drawn) [Example 1139, 2-Cyano-3-(2-bromo-6'-methylergoline-8'β)-propionamide] | -13 mm Hg | +7 b/min | +12 b/min | -23 mm Hg | -18 mm Hg | +47 b/min | +35 b/min | -12 mm Hg | -25 | +28 b/min | +13 b/min | -24 | -12 | -10 b/min | -12 b/min | -13 | -5 | 0 b/min | -12 | +10 b/min | Change in Blood Pressure after Treatment, 120' (normotensive rats): -12 mm Hg; Change in heart rate after treatment, 120' (normotensive rats): +10 b/min; Change in Blood Pressure after Treatment, 180' (normotensive rats): -10 mm Hg; Change in heart rate after treatment, 180' (normotensive rats): -5 b/min; Change in Blood Pressure after Treatment, 240' (normotensive rats): -5 mm Hg; Change in heart rate after treatment, 240' (normotensive rats): 0 b/min; Change in Blood Pressure after Treatment, 360' (normotensive rats): 0 mm Hg; Change in heart rate after treatment, 360' (normotensive rats): +15 b/min; Change in Blood Pressure after Treatment, 24h (normotensive rats): +2 mm Hg; Change in heart rate after treatment, 24h (normotensive rats): 0 b/min; LD50 at 168 h [2]: 125 mg/kg
4 | NNc1nncc2ccccc12 [Hydralazine, hydralazine, reference compound] | +2 mm Hg | +10 b/min | -28 b/min | +18 mm Hg | +7 mm Hg | +43 b/min | +23 b/min | +15 mm Hg | -52 | -45 b/min | +12 b/min | -38 | -7 | +10 b/min | +12 b/min | -8 | -19 | +70 b/min | -13 | +40 b/min | Change in Blood Pressure after Treatment, 120' (normotensive rats): -10 mm Hg; Change in heart rate after treatment, 120' (normotensive rats): +21 b/min; Change in Blood Pressure after Treatment, 180' (normotensive rats): -7 mm Hg; Change in heart rate after treatment, 180' (normotensive rats): +9 b/min; Change in Blood Pressure after Treatment, 240' (normotensive rats): -5 mm Hg; Change in heart rate after treatment, 240' (normotensive rats): +21 b/min; Change in Blood Pressure after Treatment, 360' (normotensive rats): -7 mm Hg; Change in heart rate after treatment, 360' (normotensive rats): +12 b/min; Change in Blood Pressure after Treatment, 24h (normotensive rats): 0 mm Hg; Change in heart rate after treatment, 24h (normotensive rats): +3 b/min; LD50 at 168 h [2]: 122 mg/kg
5 | C[C@](N)(Cc1ccc(O)c(O)c1)C(=O)O [α-methyl-DOPA, reference compound] |  |  |  |  |  |  |  |  |  |  |  |  |  |  |  |  |  |  |  |  | Change in HR, 1 hr after dose, first day ([1]; 30 mg/kg os): +40 b/min; Change in HR, 5 hr after dose, first day ([1]; 30 mg/kg os): +15 b/min; Change in BP, 5 hrs after dose, first day ([1]; 30 mg/kg os): -12 mm Hg; Change in BP, 1 hr after dose, fourth day ([1]; 30 mg/kg os): -12 mm Hg; Change in HR, 1 hr after dose, fourth day ([1]; 30 mg/kg os): +57 b/min; Change in HR, 5 hr after dose, fourth day ([1]; 30 mg/kg os): -18 b/min; Change in BP, 5 hrs after dose, fourth day ([1]; 30 mg/kg os): -19 mm Hg; Change in BP, 1 hr after dose, first day ([1]; 100 mg/kg os): +5 mm Hg; Change in HR, 1 hr after dose, first day ([1]; 100 mg/kg os): +87 b/min; Change in BP, 5 hrs after dose, first day ([1]; 100 mg/kg os): -38 mm Hg; Change in BP, 1 hr after dose, fourth day ([1]; 100 mg/kg os): -41 mm Hg; Change in HR, 1 hr after dose, fourth day ([1]; 100 mg/kg os): +77 b/min; Change in HR, 5 hr after dose, fourth day ([1]; 100 mg/kg os): +37 b/min; Change in BP, 5 hrs after dose, fourth day ([1]; 100 mg/kg os): -53 mm Hg; variation of the heart rate (HR), in words ([1]; Table 2): greatly increases it; LD50 (male mice): 5300 mg/kg per os

Source: patent publication US4321381A, “Ergot derivatives” (Farmitalia Carlo Erba S.p.A., priority 1978, dated 1982)
